In patent publication US20230142565A1, “MICROBIOCIDAL QUINOLINE DIHYDRO-(THIAZINE)OXAZINE DERIVATIVES” (SYNGENTA CROP PROTECTION AG, priority 2020, published 2023):

How the values were obtained:
[1] = system: Fusarium culmorum; assay: microbe, parasite or virus in culture; format: cell-based; details: read-out: control of Fusarium culmorum
[2] = system: Monographella nivalis (Microdochium nivale); assay: Monographella nivalis (Microdochium nivale) / liquid culture (foot rot cereals); format: cell-based; details: inhibition of growth determined photometrically 4-5 days after application, compared to untreated control
[3] = system: Botryotinia fuckeliana (Botrytis cinerea); assay: Botryotinia fuckeliana (Botrytis cinerea) / liquid culture (gray mould); format: cell-based; details: inhibition of growth determined photometrically 3-4 days after application, compared to untreated control
Experimental: Botryotinia fuckeliana (Botrytis cinerea)/Liquid Culture (Gray Mould) Conidia of the fungus from cryogenic storage are directly mixed into nutrient broth (Vogels broth). After placing a (DMSO) solution of test compound into a microtiter plate (96-well format), the nutrient broth containing the fungal spores is added. The test plates are incubated at 24° C. and the inhibition of growth is determined photometrically 3-4 days after application.

[4] = system: Mycosphaerella graminicola (Septoria tritici); assay: Mycosphaerella graminicola (Septoria tritici) / liquid culture (Septoria blotch); format: cell-based; details: Zymoseptoria tritici, inhibition of growth determined photometrically 4-5 days after application, compared to untreated control

Compound | inhibition of growth at 20 ppm [1] | inhibition of growth at 20 ppm [2] | inhibition of growth at 20 ppm [3] | inhibition of growth at 6 ppm [4] | melting point
CC1(C)CC(Cc2ccccn2)N=C(c2cnc3c(F)c(F)ccc3c2)S1 (stereo not drawn) [E.01, 2-(7,8-difluoro-3-quinolyl)-6,6-dimethyl-4-(2-pyridylmethyl)-4,5-dihydro-1,3-thiazine] | ≥ 80% | ≥ 80% | ≥ 80% | – | –
CC1(C)CC(Cc2cccc(F)n2)N=C(c2cnc3c(F)c(F)ccc3c2)S1 (stereo not drawn) [E.02, 2-(7,8-difluoro-3-quinolyl)-4-[(6-fluoro-2-pyridyl)methyl]-6,6-dimethyl-4,5-dihydro-1,3-thiazine] | ≥ 80% | ≥ 80% | ≥ 80% | ≥ 80% | –
CC1(C)CC(Cc2ccccn2)N=C(c2cnc3c(F)c(F)ccc3c2)O1 (stereo not drawn) [E.03, 2-(7,8-difluoro-3-quinolyl)-6,6-dimethyl-4-(2-pyridylmethyl)-4,5-dihydro-1,3-oxazine] | – | ≥ 80% | ≥ 80% | – | 120 to 123 °C
CC1(C)CC(Cc2cccc(F)n2)N=C(c2cnc3c(F)c(F)ccc3c2)O1 (stereo not drawn) [E.04, 2-(7,8-difluoro-3-quinolyl)-4-[(6-fluoro-2-pyridyl)methyl]-6,6-dimethyl-4,5-dihydro-1,3-oxazine] | ≥ 80% | ≥ 80% | ≥ 80% | – | 129 to 131 °C
CC1(C)CC(Cc2cnccn2)N=C(c2cnc3c(F)c(F)ccc3c2)S1 (stereo not drawn) [E.05, 2-(7,8-difluoro-3-quinolyl)-6,6-dimethyl-4-(pyrazin-2-ylmethyl)-4,5-dihydro-1,3-thiazine] | – | ≥ 80% | ≥ 80% | – | –
CC1(C)CC(Cc2cccnc2)N=C(c2cnc3c(F)c(F)ccc3c2)S1 (stereo not drawn) [E.06, 2-(7,8-difluoro-3-quinolyl)-6,6-dimethyl-4-(3-pyridylmethyl)-4,5-dihydro-1,3-thiazine] | ≥ 80% | ≥ 80% | ≥ 80% | – | –
CC1(C)CC(Cc2ccsc2)N=C(c2cnc3c(F)c(F)ccc3c2)S1 (stereo not drawn) [E.07, 2-(7,8-difluoro-3-quinoyl)-6,6-dimethyl-4-(3-thienylmethyl)-4,5-dihydro-1,3-thiazine] | ≥ 80% | ≥ 80% | ≥ 80% | – | –
CC1(C)CC(Cc2ccc(Cl)nc2)N=C(c2cnc3c(F)c(F)ccc3c2)O1 (stereo not drawn) [E.09, 4-[(6-chloro-3-pyridyl)methyl]-2-(7,8-difluoro-3-quinolyl)-6,6-dimethyl-4,6-dihydro-1,3-oxazine] | – | ≥ 80% | ≥ 80% | ≥ 80% | –
CC1(C)CC(Cn2cc(Cl)cn2)N=C(c2cnc3c(F)c(F)ccc3c2)S1 (stereo not drawn) [E.10, 4-[(4-chloropyrazol-1-yl)methyl]-2-(7,8-difluoro-3-quinolyl)-6,6-dimethyl-4,5-dihydro-1,3-thiazine] | – | ≥ 80% | ≥ 80% | ≥ 80% | –
CC1(C)CC(Cn2ccc(Cl)n2)N=C(c2cnc3c(F)c(F)ccc3c2)S1 (stereo not drawn) [E.11, 4-[(3-chloropyrazol-1-yl)methyl]-2-(7,8-difluoro-3-quinolyl)-6,6-dimethyl-4,5-dihydro-1,3-thiazine] | – | ≥ 80% | ≥ 80% | ≥ 80% | –
CC1(C)CC(Cn2ccc(C(F)F)n2)N=C(c2cnc3c(F)c(F)ccc3c2)S1 (stereo not drawn) [E.12, 4-[[3-(difluoromethyl)pyrazol-1-yl]methyl]-2-(7,8-difluoro-3-quinolyl)-6,6-dimethyl-4,5-dihydro-1,3-thiazine] | – | ≥ 80% | ≥ 80% | ≥ 80% | –
CC1(C)CC(Cc2cscn2)N=C(c2cnc3c(F)c(F)ccc3c2)O1 (stereo not drawn) [E.13, 2-(7,8-difluoro-3-quinolyl)-6,6-dimethyl-4-(thiazol-4-ylmethyl)-4,5-dihydro-1,3-oxazine] | – | ≥ 80% | ≥ 80% | ≥ 80% | –
CC1(C)CC(Cc2nccs2)N=C(c2cnc3c(F)c(F)ccc3c2)S1 (stereo not drawn) [E.14, 2-(7,8-difluoro-3-quinolyl)-6,6-dimethyl-4-(thiazol-2-ylmethyl)-4,5-dihydro-1,3-thiazine] | – | ≥ 80% | ≥ 80% | ≥ 80% | –
CC1(C)CC(Cc2nccs2)N=C(c2cnc3c(F)c(F)ccc3c2)O1 (stereo not drawn) [E.15, 2-(7,8-difluoro-3-quinolyl)-6,6-dimethyl-4-(thiazol-2-ylmethyl)-4,5-dihydro-1,3-oxazine] | – | ≥ 80% | ≥ 80% | ≥ 80% | 105 to 113 °C
CC1(C)CC(Cc2cncs2)N=C(c2cnc3c(F)c(F)ccc3c2)S1 (stereo not drawn) [E.16, 2-(7,8-difluoro-3-quinolyl)-6,6-dimethyl-4-(thiazol-5-ylmethyl)-4,5-dihydro-1,3-thiazine] | – | ≥ 80% | ≥ 80% | ≥ 80% | –
CC1(C)CC(Cn2cc(F)cn2)N=C(c2cnc3c(F)c(F)ccc3c2)S1 (stereo not drawn) [E.17, 2-(7,8-difluoro-3-quinolyl)-4-[(4-fluoropyrazol-1-yl)methyl]-6,6-dimethyl-4,5-dihydro-1,3-thiazine] | – | ≥ 80% | ≥ 80% | – | –
CC1(C)CC(Cn2cc(C(F)(F)F)cn2)N=C(c2cnc3c(F)c(F)ccc3c2)S1 (stereo not drawn) [E.18, 2-(7,8-difluoro-3-quinolyl)-6,6-dimethyl-4-[[4-(trifluoromethyl)pyrazol-1-yl]methyl]-4,5-dihydro-1,3-thiazine] | – | ≥ 80% | – | – | –
CC1(C)CC(Cc2cncs2)N=C(c2cnc3c(F)c(F)ccc3c2)O1 (stereo not drawn) [E.19, 2-(7,8-difluoro-3-quinolyl)-6,6-dimethyl-4-(thiazol-5-ylmethyl)-4,5-dihydro-1,3-oxazine] | – | ≥ 80% | ≥ 80% | – | 122 to 127 °C
CC1(C)CC(Cc2cccnc2)N=C(c2cnc3c(F)cccc3c2)S1 (stereo not drawn) [E.20, 2-(8-fluoro-3-quinolyl)-6,6-dimethyl-4-(3-pyridylmethyl)-4,5-dihydro-1,3-thiazine] | – | – | – | ≥ 80% | –
CC1(C)CC(Cc2cccnc2)N=C(c2cnc3c(F)cccc3c2)O1 (stereo not drawn) [E.22, 2-(8-fluoro-3-quinolyl)-6,6-dimethyl-4-(3-pyridylmethyl)-4,5-dihydro-1,3-oxazine] | – | ≥ 80% | ≥ 80% | – | –
CC1(C)CC(Cc2ccsc2)N=C(c2cnc3c(F)cccc3c2)S1 (stereo not drawn) [E.23, 2-(8-fluoro-3-quinolyl)-6,6-dimethyl-4-(3-thienylmethyl)-4,5-dihydro-1,3-thiazine] | ≥ 80% | ≥ 80% | ≥ 80% | – | –
CC1(C)CC(Cc2ccc(F)nc2)N=C(c2cnc3c(F)c(F)ccc3c2)S1 (stereo not drawn) [E.24, 2-(7,8-difluoro-3-quinolyl)-4-[(6-fluoro-3-pyridyl)methyl]-6,6-dimethyl-4,5-dihydro-1,3-thiazine] | ≥ 80% | ≥ 80% | ≥ 80% | – | –
CC1(C)CC(Cc2ccsc2)N=C(c2cnc3c(F)c(F)ccc3c2)[S+]1[O-] (stereo not drawn) [E.25, 2-(7,8-difluoro-3-quinolyl)-6,6-dimethyl-4-(3-thienylmethyl)-4,5-dihydro-1,3-thiazine 1-oxide] | ≥ 80% | ≥ 80% | – | – | –
CC1(C)CC(Cc2ccncc2)N=C(c2cnc3c(F)c(F)ccc3c2)S1 (stereo not drawn) [E.26, 2-(7,8-difluoro-3-quinolyl)-6,6-dimethyl-4-(4-pyridylmethyl)-4,5-dihydro-1,3-thiazine] | – | ≥ 80% | ≥ 80% | – | –
